The source of these data is US10538555B2, “Macrocyclic inhibitors of the PD-1/PD-L1 and CD80(B7-1)/PD-L1 protein/protein interactions” (BRISTOL-MYERS SQUIBB COMPANY, priority 2014, dated 2020).

This experiment concerns the target T1, Human PD-L1/PD-1 (Homo sapiens, UniProt Q9NZQ7).
T1 construct: TVMV protease cleavage site (C); made in house; host or cells: HEK293T cells
As to the kind of experiment: HTRF Human PD-L1/PD-1 binding assay (PD-1-Ig/PD-L1-His). To be noted: PD-L1-His 10 nM, PD-1-Ig 20 nM. The essentials:
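HTRF competition using HEK293T-expressed human PD-1(25-167)-Ig at 20 nM and PD-L1(18-239)-His at 10 nM, compound incubated first with PD-L1 for 15 min, then with PD-1 for 15 min. Signal read as 665/620 nm ratio 30 min after adding Eu anti-Ig and APC anti-His antibodies.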
Background: Time-resolved FRET reads energy transfer from a long-lived donor to a nearby acceptor.

Where [1] appears, read: class symbol, read-out: HTRF Human PD-L1/PD-1 Binding Assay IC50 Range.

Read-outs that look alike come from different tables or passages of the source. *1 amine or outer side, *2 acyl side, *3 side chain or, on linkers, in order; H or OH if unused. Where a SMILES comes first, the peptide text is derived from it. Bridges are numbered along the chain shown (N, C = ends). [ ]: non-standard residue; d: D form. ξ: configuration not given here. Trp(1-CH2COOH) = N[C@@H](Cc1cn(CC(=O)O)c2ccccc12)C(=O)O; X7 = CCCC[C@@H](C(=O)C[C@@H](CO)C(=O)[*:2])N(C)[*:1]; Phe(3,4,5-F3) = N[C@@H](Cc1cc(F)c(F)c(F)c1)C(=O)O; NMePhe(4-F) = CN[C@@H](Cc1ccc(F)cc1)C(=O)O; Phe(4-F) = N[C@@H](Cc1ccc(F)cc1)C(=O)O; d(cisHyp) = O=C(O)[C@H]1C[C@@H](O)CN1; Bta = N[C@@H](Cc1csc2ccccc12)C(=O)O; Hyp = O=C(O)[C@@H]1C[C@@H](O)CN1; NMeF = CN[C@@H](Cc1ccccc1)C(=O)O; X1 = O=C([C@H]1COCCN1[*:1])[*:2]; NMeE = CN[C@@H](CCC(=O)O)C(=O)O; NMehSer = CN[C@@H](CCO)C(=O)O; NMeNle = CCCC[C@H](NC)C(=O)O; NMeV = CN[C@H](C(=O)O)C(C)C; Pip = O=C(O)[C@@H]1CCCCN1; dPip = O=C(O)[C@H]1CCCCN1; hSer = N[C@@H](CCO)C(=O)O; NMeA = CN[C@@H](C)C(=O)O; Orn = NCCC[C@H](N)C(=O)O; Dab = NCC[C@H](N)C(=O)O; Dap = NC[C@H](N)C(=O)O; ξC = NC(CS)C(=O)O; Sar = CNCC(=O)O

T1 sequence (Q9NZQ7 with tags, fused parts or gaps): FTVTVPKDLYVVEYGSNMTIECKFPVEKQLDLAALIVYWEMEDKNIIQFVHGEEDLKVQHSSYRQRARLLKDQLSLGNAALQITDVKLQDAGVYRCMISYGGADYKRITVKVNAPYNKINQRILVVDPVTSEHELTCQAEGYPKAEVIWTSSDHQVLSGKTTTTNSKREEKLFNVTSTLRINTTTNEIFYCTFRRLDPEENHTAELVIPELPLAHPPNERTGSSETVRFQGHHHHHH

In the case of `CCCC[C@H]1C(=O)N(C)[C@@H](CCCC)C(=O)N[C@@H](CCC(=O)O)C(=O)NC(C(=O)NCC(N)=O)CSCC(=O)N[C@@H](Cc2ccc(O)cc2)C(=O)N(C)[C@@H](C)C(=O)N[C@@H](CC(N)=O)C(=O)N2CCC[C@H]2C(=O)N[C@@H](CC(N)=O)C(=O)N[C@@H](CC(C)C)C(=O)N2CCC[C@H]2C(=O)N[C@@H](Cc2c[nH]c3ccccc23)C(=O)N[C@@H](CCN)C(=O)N[C@@H](Cc2c[nH]c3ccccc23)C(=O)N1C` (some centres unmarked) [Example 9180] ({CH2CO}-Y[NMeA]NPNLPW[Dab]W[NMeNle][NMeNle]E[ξC]G-NH2; thioether N-14), under setting [1], the IC50 fell in the range of 1 to 9.9 nM.
As to `CC(C)C[C@@H]1NC(=O)[C@H](Cc2ccc(O)cc2)NC(=O)[C@H](Cc2c[nH]c3ccccc23)NC(=O)[C@H]2COCCN2C(=O)[C@H](Cc2ccc(O)cc2)NC(=O)[C@H](Cc2ccccc2)N(C)C(=O)[C@H](C(C)C)NC(=O)[C@H](CC(=O)O)NC(=O)[C@H]2C[C@@H](O)CN2C(=O)[C@H](CCC(=O)O)N(C)C(=O)[C@H](Cc2ccccc2)N(C)C(=O)[C@H](Cc2cc(F)c(F)c(F)c2)NC(=O)CSC[C@@H](C(=O)NCC(N)=O)NC1=O` [Example 10176] ({CH2CO}-[Phe(3,4,5-F3)][NMeF][NMeE][d(cisHyp)]DV[NMeF]Y[X1]WYLCG-NH2; thioether N-13), the IC50 (read-out: HTRF Human PD-L1/PD-1 Binding Assay IC50) stood at 11 nM.
Consider `CCCC[C@H]1C(=O)N(C)[C@@H](CCCC)C(=O)N[C@@H](CC(C)C)C(=O)N[C@H](C(=O)NCC(N)=O)CSCC(=O)N[C@@H](Cc2ccc(O)cc2)C(=O)N(C)[C@@H](C)C(=O)N[C@@H](CC(N)=O)C(=O)N2CCC[C@H]2C(=O)N[C@@H](CN)C(=O)N[C@@H](CC(C)C)C(=O)N(C)CC(=O)N[C@@H](Cc2c[nH]c3ccccc23)C(=O)N[C@@H](CCN)C(=O)N[C@@H](Cc2cn(CC(=O)O)c3ccccc23)C(=O)N1C` [Example 6170] ({CH2CO}-Y[NMeA]NP[Dap]L[Sar]W[Dab][Trp(1-CH2COOH)][NMeNle][NMeNle]LCG-NH2; thioether N-14), for which the IC50 under setting [1] lay in the range of 1 to 9.9 nM.
Still for that read-out and setting: under `CCCC[C@H]1C(=O)N2CCC[C@@H]2C(=O)N[C@@H](CC(=O)O)C(=O)N[C@@H](C(C)C)C(=O)N(C)[C@@H](C(C)C)C(=O)N[C@@H](CCC(N)=O)C(=O)N2CCC[C@@H]2C(=O)N[C@@H](Cc2c[nH]c3ccccc23)C(=O)N[C@@H](Cc2ccc(O)cc2)C(=O)N[C@@H](CC(C)C)C(=O)N[C@H](C(=O)NCC(N)=O)CSCC(=O)N[C@@H](Cc2ccc(F)cc2)C(=O)N(C)[C@@H](Cc2ccccc2)C(=O)N1C` [Example 9245] ({CH2CO}-[Phe(4-F)][NMeF][NMeNle][dP]DV[NMeV]Q[dP]WYLCG-NH2; thioether N-13) stands 1000 to 10000 nM; under `CCCC[C@H]1C(=O)N2C[C@H](O)C[C@@H]2C(=O)N[C@@H](CC(=O)O)C(=O)N[C@@H](C(C)C)C(=O)N(C)[C@@H](Cc2ccccc2)C(=O)N[C@@H](CC(N)=O)C(=O)N2C[C@H](O)C[C@@H]2C(=O)N[C@@H](Cc2c[nH]c3ccccc23)C(=O)N[C@@H](Cc2ccc(O)cc2)C(=O)N[C@@H](CCCN)C(=O)N[C@H](C(=O)NCC(N)=O)CSCC(=O)N[C@@H](Cc2cc(F)c(F)c(F)c2)C(=O)N(C)[C@@H](Cc2ccccc2)C(=O)N1C` [Example 9363] ({CH2CO}-[Phe(3,4,5-F3)][NMeF][NMeNle][d(cisHyp)]DV[NMeF]N[d(cisHyp)]WY[Orn]CG-NH2; thioether N-13), 1 to 9.9 nM.
Same read-out and setting: under `CCCC[C@H]1C(=O)N2CCC[C@@H]2C(=O)N[C@@H](CC(=O)O)C(=O)N[C@@H](C(C)C)C(=O)N(C)[C@@H](Cc2ccccc2)C(=O)N[C@@H](CCC(=O)O)C(=O)N2CCCC[C@@H]2C(=O)N[C@@H](Cc2c[nH]c3ccccc23)C(=O)N[C@@H](Cc2ccc(O)cc2)C(=O)N[C@@H](CN)C(=O)N[C@H](C(=O)NCC(N)=O)CSCC(=O)N[C@@H](Cc2cc(F)c(F)c(F)c2)C(=O)N(C)[C@@H](Cc2ccc(F)cc2)C(=O)N1C` [Example 10569] ({CH2CO}-[Phe(3,4,5-F3)][NMePhe(4-F)][NMeNle][dP]DV[NMeF]E[dPip]WY[Dap]CG-NH2; thioether N-13) stands 1 to 9.9 nM.
Still for that read-out and setting: under `CCCC[C@H]1C(=O)N(C)[C@@H](CCCC)C(=O)C[C@@H](CO)C(=O)NC(C(=O)NCC(N)=O)CSCC(=O)N[C@@H](Cc2ccc(O)cc2)C(=O)N(C)[C@@H](C)C(=O)N[C@@H](CC(N)=O)C(=O)N2CCC[C@H]2C(=O)N[C@@H](CC(N)=O)C(=O)N[C@@H](CC(C)C)C(=O)N2CCC[C@H]2C(=O)N[C@@H](Cc2c[nH]c3ccccc23)C(=O)N[C@@H](CO)C(=O)N[C@@H](Cc2csc3ccccc23)C(=O)N1C` (some centres unmarked) [Example 9141] ({CH2CO}-Y[NMeA]NPNLPWS[Bta][NMeNle][X7][ξC]G-NH2; thioether N-13) stands 10 to 99.9 nM.
Regarding `CCCC[C@H]1C(=O)N2CCC[C@@H]2C(=O)N[C@@H](CC(=O)O)C(=O)N[C@@H](C(C)C)C(=O)N(C)[C@@H](CCOC)C(=O)N[C@@H](CCC(N)=O)C(=O)N2CCCC[C@@H]2C(=O)N[C@@H](Cc2c[nH]c3ccccc23)C(=O)N[C@@H](Cc2ccc(O)cc2)C(=O)N[C@@H](CC(C)C)C(=O)N[C@H](C(=O)NCC(N)=O)CSCC(=O)N[C@@H](Cc2ccc(F)cc2)C(=O)N(C)[C@@H](Cc2ccccc2)C(=O)N1C` [Example 9224] ({CH2CO}-[Phe(4-F)][NMeF][NMeNle][dP]DV[NMehSer](Me)Q[dPip]WYLCG-NH2; thioether N-13), the IC50 under setting [1] is 100 to 990 nM.
Consider `CCCC[C@H]1C(=O)N(C)[C@@H](CCCC)C(=O)N[C@@H](CCN)C(=O)N[C@H](C(=O)NCC(N)=O)CSCC(=O)N[C@@H](Cc2ccc(O)cc2)C(=O)N2CCCC[C@H]2C(=O)N[C@@H](CC(=O)O)C(=O)N2CCC[C@H]2C(=O)N[C@@H](Cc2cnc[nH]2)C(=O)N[C@@H](CCC(=O)O)C(=O)N2C[C@H](O)C[C@H]2C(=O)N[C@@H](Cc2c[nH]c3ccccc23)C(=O)N[C@@H](CO)C(=O)N[C@@H](Cc2cn(CC(=O)O)c3ccccc23)C(=O)N1C` [Example 1294] ({CH2CO}-Y[Pip]DPHE[Hyp]WS[Trp(1-CH2COOH)][NMeNle][NMeNle][Dab]CG-NH2; thioether N-14), for which, under setting [1], the IC50 lay in the range of 10 to 99.9 nM.
The same measure, in the same setting: under `CCCC[C@H]1C(=O)N(C)[C@@H](CCCC)C(=O)N[C@@H](CCC(=O)O)C(=O)N[C@H](C(=O)NCC(N)=O)CSCC(=O)N[C@@H](Cc2ccc(OC)cc2)C(=O)N(C)[C@@H](C)C(=O)N[C@@H](CCN)C(=O)N2CCC[C@H]2C(=O)N[C@@H](CN)C(=O)N[C@@H](CCC(=O)O)C(=O)N2C[C@H](O)C[C@H]2C(=O)N[C@@H](Cc2c[nH]c3ccccc23)C(=O)N[C@@H](CC(=O)O)C(=O)N[C@@H](Cc2c[nH]c3ccccc23)C(=O)N1C` [Example 7114] ({CH2CO}-Y(Me)[NMeA][Dab]P[Dap]E[Hyp]WDW[NMeNle][NMeNle]ECG-NH2; thioether N-14) stands 100 to 990 nM.
Still for that read-out and setting: under `CCCC[C@H]1C(=O)N(C)[C@@H](CCCC)C(=O)N[C@@H](CCCNC(=N)N)C(=O)NC(C(=O)NCC(N)=O)CSCC(=O)N[C@@H](Cc2ccc(O)cc2)C(=O)N(C)[C@@H](C)C(=O)N[C@@H](CC(N)=O)C(=O)N2CCC[C@H]2C(=O)N[C@@H](CC(N)=O)C(=O)N[C@@H](CC(C)C)C(=O)N2CCC[C@H]2C(=O)N[C@@H](Cc2c[nH]c3ccccc23)C(=O)N[C@@H](CCO)C(=O)N[C@@H](Cc2csc3ccccc23)C(=O)N1C` (some centres unmarked) [Example 9129] ({CH2CO}-Y[NMeA]NPNLPW[hSer][Bta][NMeNle][NMeNle]R[ξC]G-NH2; thioether N-14) stands 1 to 9.9 nM.
